Measurements taken from ChEMBL document CHEMBL1201862, “PubChem BioAssay data set” (2004).
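48-hour exposure; five concentrations; linearly interpolated endpoints. Abbreviation: GI50, concentration required for 50% inhibition of growth.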 The source made the active and inactive calls. No stated cut-off is given here; in the data, active = GI50 up to about 1.1 µM and inactive = higher.

Assays:
Assay in all cases: inhibition of tumour cell growth, NCI panel, 48 h
[1] = system: HCT-15
[2] = system: LOX IMVI
[3] = system: OVCAR-5
[4] = system: SNB-75
[5] = system: KM12
[6] = system: K562
[7] = system: MDA-MB-231
[8] = system: SK-OV-3
[9] = system: HT-29
[10] = system: CAKI-1
[11] = system: M14
[12] = system: MDA-MB-435
[13] = system: T47D
[14] = system: U-251
[15] = system: SR
[16] = system: COLO 205
[17] = system: PC-3
[18] = system: HL-60
[19] = system: SK-MEL-2
[20] = system: HOP-92

| SMILES | GI50 [1] [µM] | GI50 [2] | GI50 [3] | GI50 [4] | GI50 [5] | GI50 [6] | GI50 [7] | GI50 [8] | GI50 [9] | GI50 [10] | GI50 [11] | GI50 [12] | GI50 [13] | GI50 [14] | GI50 [15] | GI50 [16] | GI50 [17] | GI50 [18] | GI50 [19] | GI50 [20] |
| --- | --- | --- | --- | --- | --- | --- | --- | --- | --- | --- | --- | --- | --- | --- | --- | --- | --- | --- | --- | --- |
| COc1ccc(-c2c(C(C)=O)c(C)n(C3OC(CO)C(O)C(O)C3O)c(=S)c2C#N)cc1 (stereo not drawn) | > 100 | 45.5 µM (inactive) | > 100 µM (inactive) | 80.9 µM (inactive) | 90.6 µM (inactive) | 37.8 µM (inactive) | > 100 µM (inactive) | > 100 µM (inactive) | > 100 µM (inactive) | > 100 µM (inactive) | 60.1 µM (inactive) | 72.6 µM (inactive) | 34.6 µM (inactive) | 47 µM (inactive) | 48.8 µM (inactive) | > 100 µM (inactive) | 47 µM (inactive) | 41 µM (inactive) |  |  |
| O=C1c2cc3c(cc2CC12Cc1ccc4c(c1C2=O)CCC4)CCC3 (stereo not drawn) | > 100 | > 100 µM (inactive) | > 100 µM (inactive) | > 100 µM (inactive) |  | > 100 µM (inactive) | > 100 µM (inactive) | 43.8 µM (inactive) | > 100 µM (inactive) | > 100 µM (inactive) | > 100 µM (inactive) | > 100 µM (inactive) | > 100 µM (inactive) | 33.6 µM (inactive) | > 100 µM (inactive) |  | > 100 µM (inactive) | > 100 µM (inactive) | > 100 µM (inactive) | > 100 µM (inactive) |
| CS/C1=C(\c2ccc(C)cc2)N(c2ccccc2)C(=O)C(=O)N(c2ccccc2)/C(c2ccc(C)cc2)=C(/SC)SS1 | > 100 | > 100 µM (inactive) | > 100 µM (inactive) | > 100 µM (inactive) |  | > 100 µM (inactive) | > 100 µM (inactive) |  | > 100 µM (inactive) | > 100 µM (inactive) | 82.8 µM (inactive) | > 100 µM (inactive) | > 100 µM (inactive) | > 100 µM (inactive) | > 100 µM (inactive) | > 100 µM (inactive) | > 100 µM (inactive) | > 100 µM (inactive) | > 100 µM (inactive) | > 100 µM (inactive) |
| CN(C)/C=C/c1nnnn1-c1ccc(I)cc1 | 13.5 | 16.6 µM (inactive) | 23.7 µM (inactive) | 11.1 µM (inactive) | 18.5 µM (inactive) | 19 µM (inactive) | 16.6 µM (inactive) | 18.1 µM (inactive) | 22.9 µM (inactive) | 22.3 µM (inactive) | 14.3 µM (inactive) | 20.5 µM (inactive) | 9.44 µM (inactive) | 11.9 µM (inactive) | 16.4 µM (inactive) | > 100 µM (inactive) | 16.6 µM (inactive) | 6.21 µM (inactive) |  | 14.2 µM (inactive) |
| CCCCCCCCC/C=C1\CC(CO)(COC(=O)c2ccccc2)OC1=O (stereo not drawn) | 20.7 |  | 15.9 µM (inactive) | 15.9 µM (inactive) | 21.4 µM (inactive) | 27.9 µM (inactive) | 19.3 µM (inactive) | 18.3 µM (inactive) | 19.1 µM (inactive) | 19.4 µM (inactive) | 17.8 µM (inactive) | 16 µM (inactive) | 29.1 µM (inactive) | 21.1 µM (inactive) | 42.4 µM (inactive) | 16.6 µM (inactive) | 17.2 µM (inactive) |  | 43.5 µM (inactive) | 9.82 µM (inactive) |
| CC(CC(C)[C@H]1CCC2[C@H]3C(CC[C@@]21C)[C@@]1(C)CCC(O)C[C@H]1C[C@@H]3O)C(=O)O (stereo partly drawn) | > 100 | > 100 µM (inactive) | > 100 µM (inactive) | > 100 µM (inactive) | > 100 µM (inactive) | 26.2 µM (inactive) | > 100 µM (inactive) |  | > 100 µM (inactive) | > 100 µM (inactive) | > 100 µM (inactive) | > 100 µM (inactive) | > 100 µM (inactive) | > 100 µM (inactive) | > 100 µM (inactive) | > 100 µM (inactive) | > 100 µM (inactive) | > 100 µM (inactive) | > 100 µM (inactive) | > 100 µM (inactive) |
| O=[N+]([O-])C(=C/c1cccc2ccccc12)/C(=C\c1cccc2ccccc12)[N+](=O)[O-] | 1.9 | 1.61 µM (inactive) | 3.66 µM (inactive) | 6.95 µM (inactive) | 4.23 µM (inactive) | 3.08 µM (inactive) | 2.1 µM (inactive) | 6.08 µM (inactive) | 2.21 µM (inactive) | 2.2 µM (inactive) | 2.19 µM (inactive) | 2.28 µM (inactive) | 3.07 µM (inactive) | 1.95 µM (inactive) | 0.955 µM (active) | 3.44 µM (inactive) | 5.24 µM (inactive) |  | 9.73 µM (inactive) | 1.92 µM (inactive) |
| c1ccc2c(c1)[nH]c1c2cc[n+]2cc3c(cc12)CCCC3 | 10.5 | 2.39 µM (inactive) | 2.45 µM (inactive) | 5.96 µM (inactive) | 1.7 µM (inactive) | 1.6 µM (inactive) | 2 µM (inactive) | 3.87 µM (inactive) | 3.28 µM (inactive) | 17.2 µM (inactive) | 2.3 µM (inactive) | 1.91 µM (inactive) | 1.66 µM (inactive) | 2.51 µM (inactive) | 1.75 µM (inactive) | 0.38 µM (active) | 2.83 µM (inactive) |  | 1.63 µM (inactive) | 3.25 µM (inactive) |
